Source: publication PMC9795544, “Identifying Novel Inhibitors for Hepatic Organic Anion Transporting Polypeptides by Machine Learning-Based Virtual Screening” (Journal of Chemical Information and Modeling, 2022)
Where two headings read alike, the source gives them in different places.

How the values were obtained:
OATP1B1 [1] = molecular target: T1, OATP1B1 (Homo sapiens, UniProt Q9Y6L6); experiment: Pyranine transport inhibition in A431 cells overexpressing OATP1B1; assay type: cell-based
T1 construct: expressed in transfected cells; host or cells: A431 cells
T1 sequence (Q9Y6L6 1-691): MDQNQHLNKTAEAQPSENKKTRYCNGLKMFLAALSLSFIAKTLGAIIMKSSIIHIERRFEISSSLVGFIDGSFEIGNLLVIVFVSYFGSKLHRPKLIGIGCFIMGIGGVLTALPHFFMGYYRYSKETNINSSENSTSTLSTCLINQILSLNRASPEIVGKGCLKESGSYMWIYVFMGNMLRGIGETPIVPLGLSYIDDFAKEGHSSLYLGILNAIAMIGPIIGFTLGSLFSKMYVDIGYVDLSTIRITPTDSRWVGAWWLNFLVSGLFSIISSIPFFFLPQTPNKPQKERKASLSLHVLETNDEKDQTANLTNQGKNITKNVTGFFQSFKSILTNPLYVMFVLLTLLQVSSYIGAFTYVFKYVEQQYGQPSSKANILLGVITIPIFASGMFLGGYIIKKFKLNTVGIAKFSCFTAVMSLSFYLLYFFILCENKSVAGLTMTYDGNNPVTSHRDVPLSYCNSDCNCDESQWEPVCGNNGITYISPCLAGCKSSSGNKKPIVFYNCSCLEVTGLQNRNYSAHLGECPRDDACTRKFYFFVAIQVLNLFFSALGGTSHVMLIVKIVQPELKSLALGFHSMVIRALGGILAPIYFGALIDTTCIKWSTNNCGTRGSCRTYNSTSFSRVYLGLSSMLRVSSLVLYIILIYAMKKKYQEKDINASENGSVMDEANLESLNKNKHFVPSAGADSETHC
Method: (§1) A431 cells overexpressing OATP1B1, OATP1B3, or OATP2B1 or their mock transfected controls were generated previously[30] and maintained in Dulbecco’s modified Eagle medium (DMEM, Gibco, Thermofisher Scientific, Waltham, MA, US) supplemented with 10% fetal bovine serum, 2 mM L-glutamine, 100 units/mL penicillin, and 100 μg/mL streptomycin. Expression and function of OATPs in the cell lines were checked regularly.
(§2) Interaction with OATP1B1, OATP1B3, or OATP2B1 was tested in an indirect transport assay using pyranine (8-hydroxypyrene-1,3,6-trisulfonic acid trisodium salt, H1529, Sigma, Merck, Budapest, Hungary) as the test substrate[31],[32] A431 cells overexpressing OATP1B1, OATP1B3, or OATP2B1 or their mock transfected controls were seeded on 96-well plates in a density of 8 × 10^4 cells per well in 200 μL of cell culture medium 1 day prior to the transport measurements. […] The transport reaction was started by the addition of 50 μL of uptake buffer containing pyranine in a final concentration of 10 μM (OATP1B1) or 20 μM (OATP1B3 and OATP2B1), and the cells were further incubated at 37 °C for 15 min (OATP1B1 and OATP2B1) or 30 min (OATP1B3). The reaction was stopped by removing the supernatant. After repeated washing with ice-cold PBS, fluorescence was determined in an Enspire plate reader (PerkinElmer, Waltham, MA) with excitation/emission wavelengths of 460/510 nm. OATP-dependent transport was calculated by extracting fluorescence measured in mock transfected cells and normalized to the fluorescence signal obtained in the absence of the tested compounds (100%). Experiments were repeated in at least three biological replicates.

OATP2B1 [2] = molecular target: T2, OATP2B1 (Homo sapiens, UniProt O94956); experiment: Pyranine transport inhibition in A431 cells overexpressing OATP2B1; assay type: cell-based; settings: for IC50: read-out: IC50 (μM) OATP2B1
T2 construct: expressed in transfected cells; host or cells: A431 cells
T2 sequence (O94956 1-709): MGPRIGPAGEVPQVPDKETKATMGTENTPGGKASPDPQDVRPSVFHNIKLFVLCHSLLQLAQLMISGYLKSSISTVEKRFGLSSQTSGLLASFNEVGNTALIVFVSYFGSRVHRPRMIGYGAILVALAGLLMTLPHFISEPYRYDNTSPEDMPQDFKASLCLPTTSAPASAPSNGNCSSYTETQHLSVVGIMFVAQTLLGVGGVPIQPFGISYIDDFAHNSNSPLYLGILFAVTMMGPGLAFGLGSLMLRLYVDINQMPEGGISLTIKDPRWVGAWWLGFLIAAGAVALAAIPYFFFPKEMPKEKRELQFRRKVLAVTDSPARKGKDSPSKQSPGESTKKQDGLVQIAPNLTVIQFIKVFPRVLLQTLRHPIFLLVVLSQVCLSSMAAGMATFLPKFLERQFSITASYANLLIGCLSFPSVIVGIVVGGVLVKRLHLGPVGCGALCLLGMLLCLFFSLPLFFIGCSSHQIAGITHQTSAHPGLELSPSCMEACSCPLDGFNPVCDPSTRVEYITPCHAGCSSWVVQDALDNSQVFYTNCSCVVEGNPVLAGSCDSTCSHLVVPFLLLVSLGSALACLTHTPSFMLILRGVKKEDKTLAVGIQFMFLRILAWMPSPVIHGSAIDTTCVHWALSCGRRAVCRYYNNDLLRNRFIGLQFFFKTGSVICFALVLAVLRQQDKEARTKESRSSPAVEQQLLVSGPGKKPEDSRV
Method: as §1, §2

OATP1B3 = molecular target: T3, OATP1B3 (Homo sapiens, UniProt Q9NPD5); experiment: Pyranine transport inhibition in A431 cells overexpressing OATP1B3; assay type: cell-based; settings: for IC50: read-out: IC50 (μM) OATP1B3
T3 construct: expressed in transfected cells; host or cells: A431 cells
T3 sequence (Q9NPD5 1-702): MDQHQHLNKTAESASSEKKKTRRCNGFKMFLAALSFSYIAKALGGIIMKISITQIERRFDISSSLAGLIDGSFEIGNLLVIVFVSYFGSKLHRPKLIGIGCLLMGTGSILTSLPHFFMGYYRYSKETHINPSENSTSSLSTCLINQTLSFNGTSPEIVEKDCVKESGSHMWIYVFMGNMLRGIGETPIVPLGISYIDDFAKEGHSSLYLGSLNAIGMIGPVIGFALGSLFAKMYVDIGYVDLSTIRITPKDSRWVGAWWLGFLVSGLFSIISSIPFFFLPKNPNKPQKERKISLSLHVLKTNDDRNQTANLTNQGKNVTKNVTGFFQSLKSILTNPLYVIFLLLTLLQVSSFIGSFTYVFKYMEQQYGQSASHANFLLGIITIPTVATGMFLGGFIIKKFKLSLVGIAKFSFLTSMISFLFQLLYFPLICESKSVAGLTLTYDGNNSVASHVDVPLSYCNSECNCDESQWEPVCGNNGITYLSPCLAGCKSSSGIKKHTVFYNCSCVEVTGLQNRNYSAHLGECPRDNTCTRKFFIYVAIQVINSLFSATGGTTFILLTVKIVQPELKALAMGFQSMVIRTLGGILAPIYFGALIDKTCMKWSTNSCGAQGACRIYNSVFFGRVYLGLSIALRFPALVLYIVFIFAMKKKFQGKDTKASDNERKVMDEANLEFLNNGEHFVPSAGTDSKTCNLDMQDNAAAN
Method: as §1, §2

OATP2B1 [3] = test system: OATP2B1; set-up: method as in earlier work; settings: ref 1 (Karlgren et al.); cited from earlier work
OATP2B1 [4] = test system: OATP2B1; set-up: method as in PMID 33932771; settings: highest affinity inhibitor reported in the literature; cited from earlier work
OATP1B1 [5] = test system: OATP1B1; set-up: method as in earlier work; settings: ref 1 (Karlgren et al.); cited from earlier work
[6] = full dose-response curve, eight concentrations, Hill1 fit
[7] = initial three-point screen (1, 10, 100 μM), category by concentration needed for 50% inhibition, pyranine 10 μM, 15 min, pH 5.5
[8] = initial three-point screen (1, 10, 100 μM), category by concentration needed for 50% inhibition, pyranine 20 μM, 15 min, pH 5.5
[9] = initial three-point screen (1, 10, 100 μM), category by concentration needed for 50% inhibition, pyranine 20 μM, 30 min, pH 5.5
[10] = initial three-point screen (1, 10, 100 μM), category by concentration needed for 50% inhibition, pyranine 10 μM, 15 min, pH 5.5, read-out: IC50 (μM) OATP1B1

For `CCC(C)c1ccc(-n2c(SCC(=O)N3c4ccccc4CC3C)nc3ccccc3c2=O)cc1` (stereo not shown) [G4, CCC(C)c1ccc(cc1)N2C(=Nc3ccccc3C2=O)SCC(=O)N4C(C)Cc5ccccc45], the “IC50 (μM) OATP1B1” value (OATP1B1 [1]; [6]) was “no effect”, the “IC50 (μM) OATP1B1” value (OATP1B1 [1]; [7]) was “no effect” and the IC50 (OATP2B1 [2]; [6]) was about 6 µM. For the same compound, the IC50 (OATP2B1 [2]; [8]) was 1 to 10 µM, the “IC50 (μM) OATP1B3” value (OATP1B3; [6]) was “no effect” and the “IC50 (μM) OATP1B3” value (OATP1B3; [9]) was “no effect”.
In the case of `COc1cc2c(cc1NC(=O)CN1C(=O)NC(Cc3c[nH]c4ccccc34)C1=O)oc1ccccc12` (stereo not shown) [G5, COc1cc2c(oc3ccccc23)cc1NC(=O)CN4C(=O)NC(Cc5c[nH]c6ccccc56)C4=O], the IC50 (OATP1B1 [1]; [10]) is reported as over 10 µM, the IC50 (OATP2B1 [2]; [8]) is reported as 1 to 10 µM and the IC50 (OATP1B3; [9]) is reported as 1 to 10 µM.
With `Cc1ccc(N2C(=O)/C(=C\Nc3nc4ccccc4nc3N3CCCC3)c3ccccc3C2=O)c(C)c1` [G6, Cc1ccc(N2C(=O)\C(=C/Nc3nc4ccccc4nc3N5CCCC5)\c6ccccc6C2=O)c(C)c1] the “IC50 (μM) OATP1B1” value (OATP1B1 [1]; [7]) was “no effect”, the IC50 (OATP2B1 [2]; [8]) was over 10 µM and the “IC50 (μM) OATP1B3” value (OATP1B3; [9]) was “no effect”.
With `O=C(/C=C/c1cn(Cc2ccccc2)nn1)N1CCCC(c2nc3ccccc3s2)C1` (stereo not shown) [H2, O=C(\C=C\c1cn(Cc2ccccc2)nn1)N3CCCC(C3)c4nc5ccccc5s4] the IC50 (OATP1B1 [1]; [10]) was over 10 µM, the IC50 (OATP2B1 [2]; [8]) was 1 to 10 µM and the IC50 (OATP1B3; [9]) was over 10 µM.
With `Cc1cc(C)c(C(=O)CSc2nc3ccccc3c(=O)n2Cc2ccc(F)cc2)c(C)c1` [H4, Cc1cc(C)c(C(=O)CSC2=Nc3ccccc3C(=O)N2Cc4ccc(F)cc4)c(C)c1] the “IC50 (μM) OATP1B1” value (OATP1B1 [1]; [7]) was “no effect”, the “IC50 (μM) OATP2B1” value (OATP2B1 [2]; [8]) was “no effect” and the “IC50 (μM) OATP1B3” value (OATP1B3; [9]) was “no effect”.
Compound `COC(=O)c1c(NC(=O)CN2C(=O)NC3(CCc4ccccc4C3)C2=O)sc2c1CCCCC2` (stereo not shown) [H5, COC(=O)c1c2CCCCCc2sc1NC(=O)CN3C(=O)NC4(CCc5ccccc5C4)C3=O] has an IC50 (OATP1B1 [1]; full dose-response curve, eight concentrations, Hill1 fit, read-out: IC50 (μM) OATP1B1) of about 25 µM, an IC50 at 15 min (OATP1B1 [1]; human, pH 5.5, probe pyranine 10 μM, initial three-point screen (1, 10, 100 μM), category by concentration needed for 50% inhibition, pyranine 10 μM, 15 min, pH 5.5, read-out: IC50 (μM) OATP1B1) of over 10 µM and an IC50 (OATP2B1 [2]; [6]) of 0.39 µM. For the same compound, the IC50 (OATP2B1 [2]; [8]) was under 1 µM, the IC50 (OATP1B3; [6]) was 6.95 µM and the IC50 at 30 min (OATP1B3; human, pH 5.5, probe pyranine 20 μM, initial three-point screen (1, 10, 100 μM), category by concentration needed for 50% inhibition, pyranine 20 μM, 30 min, pH 5.5) was over 10 µM. The “fold lower affinity on OATP1B3 than on OATP2B1” value (OATP1B3; ratio of IC50 OATP1B3 / OATP2B1) was 18 fold.
In the case of `CC(=O)Nc1ccc(S(=O)(=O)Nc2nc3ccccc3nc2NCc2ccccc2)cc1` [H6, CC(=O)Nc1ccc(cc1)S(=O)(=O)Nc2nc3ccccc3nc2NCc4ccccc4], the “IC50 (μM) OATP1B1” value (OATP1B1 [1]; [7]) is reported as “no effect”, the IC50 (OATP2B1 [2]; [8]) is reported as over 10 µM and the “IC50 (μM) OATP1B3” value (OATP1B3; [9]) is reported as “no effect”.
In the case of `C#Cc1cccc(Nc2ncnc3cc(OCCOC)c(OCCOC)cc23)c1` [erlotinib], the IC50 (OATP2B1 [3]) is listed as 550 nM.
In the case of `C[C@]12CC[C@@H]3c4cc(P(=O)(O)O)ccc4CC[C@H]3[C@@H]1CCC2=O` [estra-1,3,5(10)-trien-17-on-2-ylphosphonate], the IC50 (OATP2B1 [4]) is listed as 41 nM.
In the case of `CC[C@H](C)C(=O)O[C@H]1C[C@H](O)C=C2C=C[C@H](C)[C@H](CC[C@@H](O)C[C@@H](O)CC(=O)O)[C@H]21` [pravastatin], the IC50 (OATP1B1 [5]) is given as 3.6 µM.
